Measurements taken from patent US8759013B2, “Dual-target biosensor cell assays” (Corning Incorporated, priority 2008, dated 2014).

Target: T1, protease activated receptor subtype 1, PAR1 (Homo sapiens, UniProt P25116)
T1 construct: A431 cells endogenously express both PAR1 and β2AR; endogenous in cells; host or cells: A431 (human epidermoid carcinoma)
T1 sequence (P25116 22-425): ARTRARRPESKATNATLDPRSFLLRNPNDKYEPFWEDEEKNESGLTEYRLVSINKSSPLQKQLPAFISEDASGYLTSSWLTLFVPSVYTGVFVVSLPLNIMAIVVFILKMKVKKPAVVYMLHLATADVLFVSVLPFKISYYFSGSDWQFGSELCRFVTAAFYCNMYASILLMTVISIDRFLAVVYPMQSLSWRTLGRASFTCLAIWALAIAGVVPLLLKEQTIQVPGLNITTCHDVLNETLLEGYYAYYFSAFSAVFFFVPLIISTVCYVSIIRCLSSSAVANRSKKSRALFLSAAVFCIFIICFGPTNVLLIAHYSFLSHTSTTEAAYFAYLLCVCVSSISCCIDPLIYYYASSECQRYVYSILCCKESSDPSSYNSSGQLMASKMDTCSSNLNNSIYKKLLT
Test: RWG biosensor DMR assay, SFLLR-amide stimulation of A431 cells
Assay type: cell-based
Conditions: 1 micromolar
Text: Corning® Epic® wavelength interrogation system was used.
It is widely believed that GPCR signaling proceeds through a series of highly regulated spatial and temporal events besides the production and regulations of second messengers such as Ca^2+ and cAMP. […] The label-free optical biosensors enable the measurement of an integrated cellular response relating to ligand-induced dynamic mass redistribution in cells within the detection zone of the biosensor, offering a novel readout for receptor biology and ligand pharmacology.
FIG. 2 provide examples of RWG biosensor-based cell assays against two classes of G protein-coupled receptors. […] A431 cells endogenously express both PAR1 and β2AR. […] This is consistent with the known signaling pathways mediated through each receptor individually, i.e., PAR1 activation leads to a Gq pathway, while β2AR activation leads to a Gs pathway. […] In FIGS. 2b, 2c and 2d, the error bar at each time point was also included. One possible explanation is that distinct classes of GPCRs can mediate signaling through distinct routes (e.g., “channeling” or “tunneling”), and the cells can respond synergistically to co-stimulation with two agonists targeting two different receptors.

SFLLR-amide
type of DMR signal induced: Gq-type DMR signal
